Measured values taken from PMC9853328, “Potent Platinum(IV) Prodrugs That Incorporate a Biotin Moiety to Selectively Target Cancer Cells” (Pharmaceutics, 2022).

Tests used:
Assay type in all cases: cell-based
HT29 colon cancer cells = assay: MTT in vitro cytotoxicity assay, HT29; conditions: MTT, 72 h drug exposure, n = 3; read-out: GI50 ± SEM, HT29
Procedure: (§1) The in vitro cytotoxicity assays were undertaken at Calvary Mater Hospital, Waratah, NSW, Australia, following a method previously published in the literature. A stock solution for each compound was prepared in DMSO (30 mM) and stored at −20 °C. The cell lines used in the study include HT29 colon, U87 glioblastoma, MCF-7 breast, A2780 ovarian, H460 lung, A431 skin, Du145 prostate, BE2-C neuroblastoma, SJ-G2 glioblastoma, MIA pancreas, and cisplatin-resistant ADDP ovarian (subclone of A2780) cancer cells, as well as the non-cancerous-derived MCF10A breast cell line. The cancer cell lines were cultured in a humidified atmosphere 5% CO2 at 37 °C and maintained in Dulbecco’s modified Eagle’s medium (Trace Biosciences, Sydney, Australia), supplemented with 10% foetal bovine serum, sodium bicarbonate (10 mM), penicillin (100 IU/mL), streptomycin (100 µg/mL), and glutamine (4 mM). The non-cancerous MCF10A cell line was maintained in DMEM:F12 (1:1) cell culture media, with 5% heat inactivated horse serum, supplemented with penicillin (50 IU/mL), streptomycin (50 µg/mL), glutamine (2 mM), HEPES (20 mM), epidermal growth factor (20 ng/mL), hydrocortisone (500 ng/mL), cholera toxin (100 ng/mL), and insulin (10 µg/mL). Cells were plated in duplicate in medium (100 µL) at a density of 2500–4000 cells per well in 96-well plates. On day 0, (24 h after plating) when the cells were in logarithmic growth, medium (100 μL) with or without the test agent was added to each well. The growth inhibitory effects were evaluated after 72 h drug exposure, using the MTT (3-(4,5-dimethylthiazol-2-yl)-2,5-diphenyltetrazolium bromide) assay, with the absorbance read at 540 nm. An eight-point dose–response curve was produced, which was used to determine the concentration at which growth was inhibited by 50% (GI50). This calculation was based on the difference between the optical density values on day 0 and those at the end of drug exposure. […] Experiments were conducted on three separate occasions and GI50 values were reported as the mean and standard error of the mean.

U87 glioblastoma cells = assay: MTT in vitro cytotoxicity assay, U87; conditions: 72 h drug exposure, n = 3, read-out: GI50 ± SEM, U87
Procedure: as §1

[1] = test system: MCF-7 breast cancer cells; assay: MTT in vitro cytotoxicity assay, MCF-7; conditions: for GI50: MTT, 72 h drug exposure, n = 3, read-out: GI50 ± SEM, MCF-7; for selectivity towards MCF-7 compared to MCF10A (cytotoxicity): GI50 MCF10A versus GI50 MCF-7
[2] = test system: A2780 ovarian cancer cells; assay: MTT in vitro cytotoxicity assay, A2780; conditions: 72 h drug exposure, n = 3, read-out: GI50 ± SEM, A2780
Procedure: as §1

H460 lung cancer cells = assay: MTT in vitro cytotoxicity assay, H460; conditions: 72 h drug exposure, n = 3, read-out: GI50 ± SEM, H460
Procedure: as §1

A431 skin cancer cells = assay: MTT in vitro cytotoxicity assay, A431; conditions: 72 h drug exposure, n = 3, read-out: GI50 ± SEM, A431
Procedure: as §1

[3] = test system: Du145 prostate cancer cells; assay: MTT in vitro cytotoxicity assay, Du145; conditions: MTT, 72 h drug exposure, n = 3; read-out: GI50 ± SEM, Du145
Procedure: as §1

[4] = test system: BE2-C neuroblastoma cells; assay: MTT in vitro cytotoxicity assay, BE2-C; conditions: 72 h drug exposure, n = 3, read-out: GI50 ± SEM, BE2-C
Procedure: as §1

SJ-G2 glioblastoma cells = assay: MTT in vitro cytotoxicity assay, SJ-G2; conditions: 72 h drug exposure, n = 3, read-out: GI50 ± SEM, SJ-G2
Procedure: as §1

[5] = test system: MIA pancreas cancer cells; assay: MTT in vitro cytotoxicity assay, MIA; conditions: 72 h drug exposure, n = 3, read-out: GI50 ± SEM, MIA
Procedure: as §1

[6] = test system: non-cancerous MCF10A breast cell line; assay: MTT in vitro cytotoxicity assay, MCF10A; conditions: 72 h drug exposure, n = 3, read-out: GI50 ± SEM, MCF10A
Procedure: as §1

[7] = test system: cisplatin-resistant ADDP ovarian (subclone of A2780) cancer cells; assay: MTT in vitro cytotoxicity assay, ADDP; conditions: 72 h drug exposure, n = 3, read-out: GI50 ± SEM, ADDP
Procedure: as §1

[8] = test system: ADDP (subclone of A2780) versus A2780 ovarian cancer cell lines; assay: Resistance factor, GI50 in ADDP/GI50 in A2780

SMILES	GI50 (HT29 colon cancer cells)	GI50 (U87 glioblastoma cells)	GI50 [1]	GI50 [2]	GI50 (H460 lung cancer cells)	GI50 (A431 skin cancer cells)	GI50 [3]	GI50 [4]	GI50 (SJ-G2 glioblastoma cells)	GI50 [5]	GI50 [6]	GI50 [7]	Resistance factor (RF) [8]	selectivity towards MCF-7 compared to MCF10A (cytotoxicity) [1]
Cc1cc2ccc[n+]3c2c2c1ccc[n+]2[Pt-2]31[NH2+][C@H]2CCCC[C@@H]2[NH2+]1.[Cl-].[Cl-] [5MESS(II)]	33 ± 3.8 nM	320 ± 26 nM	200 ± 12 nM	61 ± 10 nM	41 ± 5 nM	120 ± 25 nM	22 ± 2.7 nM	270 ± 38 nM	220 ± 10 nM	48 ± 2 nM	30 ± 1.8 nM	34 ± 2.3 nM	0.557	
Cc1cc2ccc[n+]3c2c2c1ccc[n+]2[Pt-2]31([OH])([OH])[NH2+][C@H]2CCCC[C@@H]2[NH2+]1.O=[N+]([O-])[O-].O=[N+]([O-])[O-] [5MESS(IV)]	150 ± 9 nM	830 ± 170 nM	560 ± 200 nM	110 ± 26 nM	180 ± 32 nM	240 ± 7 nM	36 ± 3.2 nM	1100 ± 180 nM	600 ± 74 nM	290 ± 34 nM	220 ± 26 nM	180 ± 24 nM	1.636	
COc1cc[n+]2c3c1ccc1c(OC)cc[n+](c13)[Pt-2]21[NH2+][C@H]2CCCC[C@@H]2[NH2+]1.[Cl-].[Cl-] [47OMESS(II)]	120 ± 16 nM	390 ± 60 nM	150 ± 45 nM	230 ± 7 nM	500 ± 58 nM	350 ± 26 nM	85 ± 4.8 nM	2600 ± 260 nM	1300 ± 67 nM	240 ± 42 nM	430 ± 37 nM	170 ± 10 nM	0.739	3 fold
COc1cc[n+]2c3c1ccc1c(OC)cc[n+](c13)[Pt-2]21([OH])([OH])[NH2+][C@H]2CCCC[C@@H]2[NH2+]1.O=[N+]([O-])[O-].O=[N+]([O-])[O-] [47OMESS(IV)]	520 ± 85 nM	2600 ± 390 nM	510 ± 168 nM	1700 ± 230 nM	3100 ± 210 nM	3300 ± 590 nM	270 ± 38 nM	33000 ± 3200 nM	7600 ± 1800 nM	1900 ± 460 nM	3700 ± 380 nM	1300 ± 58 nM	0.765	7 fold
